From patent publication US5244916A, “Inhibition of respiratory burst using posttranslational modification inhibitors” (The Scripps Research Institute, priority 1992, dated 1993) come the findings set out here.

The subject of one data set is HL-60 cells. Put plainly: HL-60 cell viability by propidium iodide uptake (flow cytometry). The method, then:
(§1) HL-60 cells were maintained in stationary culture in RPMI 1640 medium (Gibco, Grand Island, NY) containing 10% fetal bovine serum at 37° C in an atmosphere of 95 air and 5% CO2. The cells (about 8×10^5 /ml) were differentiated into neutrophil-like cells by treatment with 1.3% DMSO for six days (Harris, et al., J. Leukocyte Biol. 37: 407-422 (1985)). […] […] In studies of the protective effect of mevalonic acid, the compound was added as the mevalonolactone (Sigma Chemical Co., St. Louis, MO) at a concentration of 1 mM to the cell culture on days 4 to 6. Similarly, cholesterol was added in the form of LDL prepared according to the method of Curtiss and Edgington (Curtiss, et al., J. Biol. Chem. 257: 15213-15221 (1991)) at a final concentration of 50 μg/ml; ubiquinone (Sigma Chemical Co., St. Louis, MO) was added as Coenzyme Q-10 at a final concentration of 0.5 mM; and dolichol (Sigma Chemical Co., St. Louis, MO) was added as a dispersion in phosphatidylcholine at a final concentration of 0.5 mM (Cutts, et al., J. Cell Physiol. 139: 550-555 (1989)).
(§2) Cell viability was determined by uptake of propidium iodide (537-059; Calbiochem-Behring Corp., La Jolla, CA), detected from the emission fluorescence at 625/35 nm using a DM560 dichronic mirror (Krishan, J. Cell. Biol. 66: 188-192 (1975)). Expression of N-formyl peptide receptor was determined using fluorescein-labeled N-CHONle-Leu-Phe-Nle-Tyr-Lys (Molecular Probes, Inc., Eugene, OR) essentially by the method of Sklar and Finney (Sklar and Finney, Cytometry 3: 161-165 (1982)). Specificity of ligand binding was determined in the presence of 4 mM unlabeled T-boc peptide. CD14 expression was determined using monoclonal antibody 3C10 at a dilution of 1:1,000 (see Goyert and Ferrero, in Leucocyte Typing III: White Cell Differentiation Antigens, McMichael, ed., Oxford Univ. Press, NY, pp. 613-619 (1988)), with detection using a fluorescein-labeled secondary antibody. Flow cytometric analyses were performed on a FACSIV (registered trademark of Becton-Dickinson, San Jose, CA) equipped with a 2W argon laser (Coherent Inc., Palo Alto, collected in list mode and analyzed using the Consort 30 program (Becton-Dickinson, San Jose, CA) after collecting 10,000 events.

Experiment in data set [1]: as above
To be noted: human, hl-60 cells. The method, then:
as §1, §2

For data set [2], the system named is NADPH oxidase in HL-60 cells. Description: Inhibition of NADPH oxidase activation / O2- generation in HL-60 cells (stimulus not singled out). It is filed as cell-based. The method, then:
HL-60 cells were maintained in stationary culture in RPMI 1640 medium (Gibco, Grand Island, NY) containing 10% fetal bovine serum at 37° C in an atmosphere of 95 air and 5% CO2. The cells (about 8×10^5 /ml) were differentiated into neutrophil-like cells by treatment with 1.3% DMSO for six days (Harris, et al., J. Leukocyte Biol. 37: 407-422 (1985)). The cells were treated with the indicated levels of compactin or lovastatin by addition of a 1,000-fold concentrated stock solution to the appropriate concentration on day 4 of differentiation. […] In studies of the protective effect of mevalonic acid, the compound was added as the mevalonolactone (Sigma Chemical Co., St. Louis, MO) at a concentration of 1 mM to the cell culture on days 4 to 6. Similarly, cholesterol was added in the form of LDL prepared according to the method of Curtiss and Edgington (Curtiss, et al., J. Biol. Chem. 257: 15213-15221 (1991)) at a final concentration of 50 μg/ml; ubiquinone (Sigma Chemical Co., St. Louis, MO) was added as Coenzyme Q-10 at a final concentration of 0.5 mM; and dolichol (Sigma Chemical Co., St. Louis, MO) was added as a dispersion in phosphatidylcholine at a final concentration of 0.5 mM (Cutts, et al., J. Cell Physiol. 139: 550-555 (1989)). O2 --formation by HL-60 cells was assessed by the SOD-sensitive reduction of cytochrome c. Cells were suspended at 1×10^7 /ml in Krebs-Ringer Hepes buffer with 5.5 mM glucose (KRHG) and 50-100μl of cells were added to a cuvette containing 100 μM cytochrome c (type III, Sigma Chemical Co., St. Louis, MO), ±300 μg/ml SOD (Sigma Chemical Co., St. Louis, MO) in 700-750 μl KRHG. Cytochalasin b (Sigma Chemical Co., St. Louis, MO) was added to a final concentration of 5 μg/ml, and the cells were incubated at 37° C. for five minutes while a stable baseline at a wavelength of 550 nm was obtained. O2 --formation was initiated by the addition of 1 μM N-formylmethionylleucylphenylalanine (FMLP; Sigma Chemical Co., St. Louis, MO) or 1μg/ml phorbol myristate acetate (PMA; Sigma Chemical Co., St. Louis, MO). Cytochrome c reduction at 550nm was continuously monitored and maximal rate and extent of the reaction calculated.

Bounds are passed on as bounds.

Regarding `CC[C@H](C)C(=O)O[C@H]1CCC=C2C=C[C@H](C)[C@H](CC[C@@H]3C[C@@H](O)CC(=O)O3)[C@H]21` [compactin], in the data set on HL-60 cells (compactin treatment, concentrations of the studies), the HL-60 cell viability entry is listed as “not affected”. Also, the “cell viability when inhibitor added at day 1 of differentiation” value with HL-60 cells (higher concentrations of each drug) is recorded as “somewhat decreased”. Further, in data set [1], the viability (commonly the share of living cells, or the viability signal relative to a control) at 0.4 µM amounted to 100 ± 1.6%; the viability at 2 µM is 95 ± 1.2%; the viability at 4 µM is 97 ± 0.9%; the viability at 10 µM came to 96 ± 1.2%. In data set [2], the “inhibition of NADPH oxidase activation, effective concentrations” value is given as “micromolar concentrations”. In data set [2] (Homo sapiens, HL-60, 10 μM compactin, response to FMLP or PMA, read-out: inhibition of O2- formation), the inhibition (commonly the percentage by which the read-out fell short of the control) at 10 µM is > 85%. Besides, in data set [2] (Homo sapiens, DMSO-differentiated HL-60, response to FMLP or PMA, read-out: half-maximal inhibition of O2- formation), the IC50 lay in the range of 0.4 to 2 µM. The “ability of HL-60 cells to generate O2-” value in data set [2] (response to receptor stimuli and downstream activators) is recorded as “markedly inhibited”.
